Measurements published in ChEMBL document CHEMBL3352057, “Novel fluorinated pyrrolo[1,2-a]pyrazine-2,6-dione derivatives: synthesis and anticonvulsant evaluation in animal models of epilepsy” (Bioorg Med Chem, 2014).
Activity calls are given as the source filed them. The rule behind the calls is not given here.

Key:
Mus musculus [1] = test: Anticonvulsant activity in albino CF1 mouse assessed as protection against maximal electroshock-induced seizures at 100 mg/kg, ip measured after 0.25 hr; assay type: functional, organism-based; parameters: dose 100 mg/kg
Mus musculus [2] = test: Anticonvulsant activity in albino CF1 mouse assessed as protection against maximal electroshock-induced seizures at 100 mg/kg, ip measured after 1 hr; assay type: functional, organism-based; parameters: dose 100 mg/kg
Mus musculus [3] = test: Neurotoxicity in albino CF1 mouse at 100 mg/kg, ip measured after 0.25 hr; assay type: toxicity, organism-based; parameters: dose 100 mg/kg, route intraperitoneal; conditions: in vivo
Mus musculus [4] = test: Neurotoxicity in albino CF1 mouse at 100 mg/kg, ip measured after 1 hr; assay type: toxicity, organism-based; parameters: dose 100 mg/kg, route intraperitoneal; conditions: in vivo
Mus musculus [5] = test: Anticonvulsant activity in albino CF1 mouse assessed as protection against 32 mA current-induced seizures at 100 mg/kg, ip measured after 0.25 hr; assay type: functional, organism-based; parameters: dose 100 mg/kg
Mus musculus [6] = test: Anticonvulsant activity in albino CF1 mouse assessed as protection against 32 mA current-induced seizures at 100 mg/kg, ip measured after 1 hr; assay type: functional, organism-based; parameters: dose 100 mg/kg
Mus musculus [7] = test: Neurotoxicity in 32 mA current-induced seizure albino CF1 mouse model at 100 mg/kg, ip measured after 0.25 hr; assay type: toxicity, organism-based; parameters: dose 100 mg/kg, route intraperitoneal; conditions: in vivo
Mus musculus [8] = test: Neurotoxicity in 32 mA current-induced seizure albino CF1 mouse model at 100 mg/kg, ip measured after 1 hr; assay type: toxicity, organism-based; parameters: dose 100 mg/kg, route intraperitoneal; conditions: in vivo
Mus musculus [9] = test: Anticonvulsant activity in albino CF1 mouse assessed as protection against maximal electroshock-induced seizures at 100 mg/kg, ip measured after 0.5 hr; assay type: functional, organism-based; parameters: dose 100 mg/kg
Mus musculus [10] = test: Anticonvulsant activity in albino CF1 mouse assessed as protection against maximal electroshock-induced seizures at 100 mg/kg, ip measured after 4 hrs; assay type: functional, organism-based; parameters: dose 100 mg/kg
Mus musculus [11] = test: Anticonvulsant activity in albino CF1 mouse assessed as protection against subcutaneous metrazol-induced seizures at 100 mg/kg, ip measured after 0.25 hr; assay type: functional, organism-based; parameters: dose 100 mg/kg
Mus musculus [12] = test: Anticonvulsant activity in albino CF1 mouse assessed as protection against subcutaneous metrazol-induced seizures at 100 mg/kg, ip measured after 0.5 hr; assay type: functional, organism-based; parameters: dose 100 mg/kg
Mus musculus [13] = test: Anticonvulsant activity in albino CF1 mouse assessed as protection against subcutaneous metrazol-induced seizures at 100 mg/kg, ip measured after 1 hr; assay type: functional, organism-based; parameters: dose 100 mg/kg
Mus musculus [14] = test: Anticonvulsant activity in albino CF1 mouse assessed as protection against subcutaneous metrazol-induced seizures at 100 mg/kg, ip measured after 4 hrs; assay type: functional, organism-based; parameters: dose 100 mg/kg
Mus musculus [15] = test: Neurotoxicity in albino CF1 mouse at 100 mg/kg, ip measured after 0.5 hr; assay type: toxicity, organism-based; parameters: dose 100 mg/kg, route intraperitoneal; conditions: in vivo
Mus musculus [16] = test: Neurotoxicity in albino CF1 mouse at 100 mg/kg, ip measured after 4 hrs; assay type: toxicity, organism-based; parameters: dose 100 mg/kg, route intraperitoneal; conditions: in vivo
Mus musculus [17] = test: Anticonvulsant activity in albino CF1 mouse assessed as protection against 32 mA current-induced seizures at 100 mg/kg, ip measured after 0.5 hr; assay type: functional, organism-based; parameters: dose 100 mg/kg
Mus musculus [18] = test: Anticonvulsant activity in albino CF1 mouse assessed as protection against 32 mA current-induced seizures at 100 mg/kg, ip measured after 2 hrs; assay type: functional, organism-based; parameters: dose 100 mg/kg
Mus musculus [19] = test: Anticonvulsant activity in albino CF1 mouse assessed as protection against 32 mA current-induced seizures at 100 mg/kg, ip measured after 4 hrs; assay type: functional, organism-based; parameters: dose 100 mg/kg
Mus musculus [20] = test: Neurotoxicity in 32 mA current-induced seizure albino CF1 mouse model at 100 mg/kg, ip measured after 0.5 hr; assay type: toxicity, organism-based; parameters: dose 100 mg/kg, route intraperitoneal; conditions: in vivo
Mus musculus [21] = test: Neurotoxicity in 32 mA current-induced seizure albino CF1 mouse model at 100 mg/kg, ip measured after 2 hrs; assay type: toxicity, organism-based; parameters: dose 100 mg/kg, route intraperitoneal; conditions: in vivo
Mus musculus [22] = test: Neurotoxicity in 32 mA current-induced seizure albino CF1 mouse model at 100 mg/kg, ip measured after 4 hrs; assay type: toxicity, organism-based; parameters: dose 100 mg/kg, route intraperitoneal; conditions: in vivo
Rattus norvegicus [23] = test: Anticonvulsant activity in Sprague-Dawley rat assessed as protection against maximal electroshock-induced seizures at 30 mg/kg, ip measured after 0.25 hr; assay type: functional, organism-based; parameters: dose 30 mg/kg
Rattus norvegicus [24] = test: Anticonvulsant activity in Sprague-Dawley rat assessed as protection against maximal electroshock-induced seizures at 30 mg/kg, ip measured after 0.5 hr; assay type: functional, organism-based; parameters: dose 30 mg/kg
Rattus norvegicus [25] = test: Anticonvulsant activity in Sprague-Dawley rat assessed as protection against maximal electroshock-induced seizures at 30 mg/kg, ip measured after 1 hr; assay type: functional, organism-based; parameters: dose 30 mg/kg
Rattus norvegicus [26] = test: Anticonvulsant activity in Sprague-Dawley rat assessed as protection against maximal electroshock-induced seizures at 30 mg/kg, ip measured after 2 hrs; assay type: functional, organism-based; parameters: dose 30 mg/kg
Rattus norvegicus [27] = test: Anticonvulsant activity in Sprague-Dawley rat assessed as protection against maximal electroshock-induced seizures at 30 mg/kg, ip measured after 4 hrs; assay type: functional, organism-based; parameters: dose 30 mg/kg
Rattus norvegicus [28] = test: Neurotoxicity in MES Sprague-Dawley rat model at 30 mg/kg, ip measured after 0.25 hr; assay type: toxicity, organism-based; parameters: dose 30 mg/kg, route intraperitoneal; conditions: in vivo
Rattus norvegicus [29] = test: Neurotoxicity in MES Sprague-Dawley rat model at 30 mg/kg, ip measured after 0.5 hr; assay type: toxicity, organism-based; parameters: dose 30 mg/kg, route intraperitoneal; conditions: in vivo
Rattus norvegicus [30] = test: Neurotoxicity in MES Sprague-Dawley rat model at 30 mg/kg, ip measured after 1 hr; assay type: toxicity, organism-based; parameters: dose 30 mg/kg, route intraperitoneal; conditions: in vivo
Rattus norvegicus [31] = test: Neurotoxicity in MES Sprague-Dawley rat model at 30 mg/kg, ip measured after 2 hrs; assay type: toxicity, organism-based; parameters: dose 30 mg/kg, route intraperitoneal; conditions: in vivo
Rattus norvegicus [32] = test: Neurotoxicity in MES Sprague-Dawley rat model at 30 mg/kg, ip measured after 4 hrs; assay type: toxicity, organism-based; parameters: dose 30 mg/kg, route intraperitoneal; conditions: in vivo

With `O=C1NC(=O)[C@@H](c2cccc(C(F)(F)F)c2)N2CCCC[C@@H]12` the Activity (Mus musculus [1]) was “inactive”, the Activity (Mus musculus [2]) was “inactive” and the Activity (Mus musculus [3]) was “Non-toxic”. The Activity (Mus musculus [4]) was “Non-toxic”, the Activity (Mus musculus [5]) was “inactive” and the Activity (Mus musculus [6]) was “inactive”. For the same compound, the Activity (Mus musculus [7]) was “Non-toxic” and the Activity (Mus musculus [8]) was “Non-toxic”.

`O=C1NC(=O)[C@@H]2CCCCN2[C@H]1c1cccc(C(F)(F)F)c1` was tested, and the Activity (Mus musculus [1]) was “inactive”, the Activity (Mus musculus [9]) was “inactive” and the Activity (Mus musculus [2]) was “inactive”. For the same compound, the Activity (Mus musculus [10]) was “inactive”, the Activity (Mus musculus [11]) was “inactive” and the Activity (Mus musculus [12]) was “inactive”. For the same compound, the Activity (Mus musculus [13]) was “inactive”, the Activity (Mus musculus [14]) was “inactive” and the Activity (Mus musculus [3]) was “Non-toxic”. The Activity (Mus musculus [15]) was “Non-toxic”, the Activity (Mus musculus [4]) was “Non-toxic” and the Activity (Mus musculus [16]) was “Non-toxic”. For the same compound, the Activity (Mus musculus [5]) was “Active”, the Activity (Mus musculus [17]) was “Active” and the Activity (Mus musculus [6]) was “inactive”. For the same compound, the Activity (Mus musculus [18]) was “inactive”, the Activity (Mus musculus [19]) was “inactive” and the Activity (Mus musculus [7]) was “Non-toxic”. For the same compound, the Activity (Mus musculus [20]) was “Non-toxic”, the Activity (Mus musculus [8]) was “Non-toxic” and the Activity (Mus musculus [21]) was “Non-toxic”. The Activity (Mus musculus [22]) was “Non-toxic”, the Activity (Rattus norvegicus [23]) was “inactive” and the Activity (Rattus norvegicus [24]) was “inactive”. The Activity (Rattus norvegicus [25]) was “inactive”, the Activity (Rattus norvegicus [26]) was “inactive” and the Activity (Rattus norvegicus [27]) was “inactive”. The Activity (Rattus norvegicus [28]) was “Non-toxic”, the Activity (Rattus norvegicus [29]) was “Non-toxic” and the Activity (Rattus norvegicus [30]) was “Non-toxic”. The Activity (Rattus norvegicus [31]) was “Non-toxic” and the Activity (Rattus norvegicus [32]) was “Non-toxic”.

In the case of `O=C1NC(=O)[C@H](c2cccc(C(F)(F)F)c2)N2CCCC[C@H]12`, the Activity (Mus musculus [1]) is reported as “inactive”, the Activity (Mus musculus [2]) is reported as “inactive” and the Activity (Mus musculus [11]) is reported as “inactive”. For the same compound, the Activity (Mus musculus [13]) was “inactive”, the Activity (Mus musculus [3]) was “Non-toxic” and the Activity (Mus musculus [4]) was “Non-toxic”. For the same compound, the Activity (Mus musculus [5]) was “inactive”, the Activity (Mus musculus [6]) was “inactive” and the Activity (Mus musculus [7]) was “Non-toxic”. The Activity (Mus musculus [8]) was “Non-toxic”.

`O=C1NC(=O)[C@@H]2CCCN2[C@H]1c1cc(F)cc(F)c1` was tested, and the Activity (Mus musculus [1]) was “Active”, the Activity (Mus musculus [9]) was “inactive” and the Activity (Mus musculus [2]) was “inactive”. The Activity (Mus musculus [10]) was “inactive”, the Activity (Mus musculus [11]) was “Active” and the Activity (Mus musculus [12]) was “Active”. The Activity (Mus musculus [13]) was “inactive”, the Activity (Mus musculus [14]) was “inactive” and the Activity (Mus musculus [3]) was “Non-toxic”. For the same compound, the Activity (Mus musculus [15]) was “Non-toxic”, the Activity (Mus musculus [4]) was “Non-toxic” and the Activity (Mus musculus [16]) was “Non-toxic”. The Activity (Mus musculus [5]) was “Active”, the Activity (Mus musculus [17]) was “Active” and the Activity (Mus musculus [6]) was “inactive”. For the same compound, the Activity (Mus musculus [18]) was “inactive”, the Activity (Mus musculus [19]) was “inactive” and the Activity (Mus musculus [7]) was “Non-toxic”. The Activity (Mus musculus [20]) was “Non-toxic”, the Activity (Mus musculus [8]) was “Non-toxic” and the Activity (Mus musculus [21]) was “Non-toxic”. For the same compound, the Activity (Mus musculus [22]) was “Non-toxic”.
